# Test results reported in patent publication US8247377B2, “Non-steroidal glucocorticoid inhibitors and their use in treating inflammation, allergy and auto-immune conditions” (Glaxo Group Limited, priority 2006, dated 2012).
# Assays:
# [1] = tested on: NFκB; assay: NFκB agonist assay in A549 SPAP cells; assay type: cell-based; settings: Homo sapiens; for Emax: A549, A549 SPAP cells, >85% = full agonist, ≧20% = partial or full agonist, read-out: average maximum asymptote in the NFkB assay; for IC50: A549 SPAP cells, TNFα 3.2 ng/ml, read-out: pIC50 for the NFkB assay (converted);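 on average maximum asymptote in the NFkB assay: maximum inhibition of the TNFα-induced NFκB-driven signal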
# Method in brief: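 A549 cells stably carrying an ELAM/NFκB-driven SPAP reporter were pre-incubated 1 h at 37° C with compound, then stimulated with TNFα (3.2 ng/ml final) for 15 h. SPAP activity read colorimetrically with pNPP at 405 nm after ~1 h; pIC50 estimated from dose-response curves.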
# [2] = tested on: MMTV promoter; assay: MMTV agonist assay in A549 MMTV cells; assay type: cell-based; settings: Homo sapiens, A549, 6 h, >85% = full agonist, >20% and <85% = partial or efficacy selective agonist, read-out: average maximum asymptote in the MMTV agonist assay
# Method in brief: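 A549 cells stably carrying an MMTV promoter-driven renilla luciferase reporter were exposed to compound for 6 h at 37 °C in DMEM with 10% FCS and 25 mM HEPES. Luminescence read after renilla substrate addition; pEC50 and maximum asymptote estimated from dose-response curves.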
smiles,measurement,setting,value
"CCN(CC(O)(CNC(=O)c1cnn(-c2ccc(F)cc2)c1N)C(F)(F)F)C(=O)c1c(Cl)cccc1Cl (racemic) [Example 2 (racemic), 5-Amino-N-(2-{[[(2,6-dichlorophenyl)carbonyl](ethyl)amino]methyl}-3,3,3-trifluoro-2-hydroxypropyl)-1-(4-fluorophenyl)-1H-pyrazole-4-carboxamide]",Emax,[1],> 85%
same,IC50,[1],< 1 µM
same,Emax,[2],> 85%
"CN(CC(O)(CNC(=O)c1cnn(-c2ccc(F)cc2)c1N)C(F)(F)F)C(=O)c1c(Cl)cccc1Br (racemic) [Example 16 (racemic), 5-amino-N-(2-{[[(2-bromo-6-chlorophenyl)carbonyl](methyl)amino]methyl}-3,3,3-trifluoro-2-hydroxypropyl)-1-(4-fluorophenyl)-1H-pyrazole-4-carboxamide]",Emax,[1],> 85%
same,IC50,[1],< 1 µM
same,Emax,[2],> 85%
"CCN(CC(O)(CNC(=O)c1cnn(-c2ccc(F)cc2)c1N)C(F)(F)F)C(=O)c1c(F)cccc1C(F)(F)F (racemic) [Example 23 (racemic), 5-amino-N-{2-[(ethyl{[2-fluoro-6-(trifluoromethyl)phenyl]carbonyl}amino)methyl]-3,3,3-trifluoro-2-hydroxypropyl}-1-(4-fluorophenyl)-1H-pyrazole-4-carboxamide]",Emax,[1],> 85%
same,IC50,[1],< 1 µM
same,Emax,[2],> 85%
"Nc1c(C(=O)NCC(O)(CNC(=O)c2c(Cl)cccc2Br)C(F)(F)F)cnn1-c1ccc(F)cc1 (racemic) [Example 12 (racemic), 5-Amino-N-[2-({[(2-bromo-6-chlorophenyl)carbonyl]amino}methyl)-3,3,3-trifluoro-2-hydroxypropyl]-1-(4-fluorophenyl)-1H-pyrazole-4-carboxamide]",Emax,[1],≥ 20%
same,IC50,[1],< 1 µM
same,Emax,[2],20 to 85%
"CN(CC(O)(CNC(=O)c1cnn(-c2ccc(F)cc2)c1N)C(F)(F)F)C(=O)c1c(C(F)(F)F)cccc1C(F)(F)F (racemic) [Example 22 (racemic), 5-amino-N-(2-{[{[2,6-bis(trifluoromethyl)phenyl]carbonyl}(methyl)amino]methyl}-3,3,3-trifluoro-2-hydroxypropyl)-1-(4-fluorophenyl)-1H-pyrazole-4-carboxamide]",Emax,[1],> 85%
same,IC50,[1],< 1 µM
same,Emax,[2],> 85%
"Nc1c(C(=O)NCC(O)(CNC(=O)c2c(Cl)cccc2OC(F)F)C(F)(F)F)cnn1-c1ccc(F)cc1 (racemic) [Example 14 (racemic), 5-Amino-N-(2-{[({2-chloro-6-[(difluoromethyl)oxy]phenyl}carbonyl)amino]methyl}-3,3,3-trifluoro-2-hydroxypropyl)-1-(4-fluorophenyl)-1H-pyrazole-4-carboxamide]",Emax,[1],≥ 20%
same,IC50,[1],< 1 µM
same,Emax,[2],20 to 85%
"CCN(CC(O)(CNC(=O)c1cnn(-c2ccc(F)cc2)c1N)C(F)(F)F)C(=O)c1c(F)cccc1F (racemic) [Example 5 (racemic), 5-Amino-N-(2-{[[(2,6-difluorophenyl)carbonyl](ethyl)amino]methyl}-3,3,3-trifluoro-2-hydroxypropyl)-1-(4-fluorophenyl)-1H-pyrazole-4-carboxamide]",Emax,[1],> 85%
same,IC50,[1],< 1 µM
same,Emax,[2],> 85%
"CCN(CC(O)(CNC(=O)c1cnn(-c2ccc(F)cc2)c1N)C(F)(F)F)C(=O)c1c(C(F)(F)F)cccc1C(F)(F)F (racemic) [Example 27 (racemic), 5-amino-N-(2-{[{[2,6-bis(trifluoromethyl)phenyl]carbonyl}(ethyl)amino]methyl}-3,3,3-trifluoro-2-hydroxypropyl)-1-(4-fluorophenyl)-1H-pyrazole-4-carboxamide]",Emax,[1],> 85%
same,IC50,[1],< 1 µM
same,Emax,[2],> 85%
"CCN(CC(O)(CNC(=O)c1cnn(-c2ccc(F)cc2)c1N)C(F)(F)F)C(=O)c1c(F)cccc1Cl (racemic) [Example 4 (racemic), 5-Amino-N-(2-{[[(2-chloro-6-fluorophenyl)carbonyl](ethyl)amino]methyl}-3,3,3-trifluoro-2-hydroxypropyl)-1-(4-fluorophenyl)-1H-pyrazole-4-carboxamide]",Emax,[1],> 85%
same,IC50,[1],< 1 µM
same,Emax,[2],> 85%
"Nc1c(C(=O)NCC(O)(CNC(=O)c2c(F)cccc2C(F)(F)F)C(F)(F)F)cnn1-c1ccc(F)cc1 (racemic) [Example 19 (racemic), 5-amino-1-(4-fluorophenyl)-N-{3,3,3-trifluoro-2-[({[2-fluoro-6-(trifluoromethyl)phenyl]carbonyl}amino)methyl]-2-hydroxypropyl}-1H-pyrazole-4-carboxamide]",Emax,[1],≥ 20%
same,IC50,[1],< 1 µM
same,Emax,[2],20 to 85%
"Nc1c(C(=O)NCC(O)(CNC(=O)c2c(Cl)cccc2C(F)(F)F)C(F)(F)F)cnn1-c1ccc(F)cc1 (single isomer, unassigned) [Example 44 Enantiomer 1, 5-Amino-N-{2-[({[2-chloro-6-(trifluoromethyl)phenyl]carbonyl}amino)methyl]-3,3,3-trifluoro-2-hydroxypropyl}-1-(4-fluorophenyl)-1H-pyrazole-4-carboxamide]",Emax,[1],≥ 20%
same,IC50,[1],< 1 µM
same,Emax,[2],20 to 85%
"Nc1c(C(=O)NCC(O)(CNC(=O)c2c(F)cccc2Cl)C(F)(F)F)cnn1-c1ccc(F)cc1 (racemic) [Example 7 (racemic), 5-Amino-N-[2-({[(2-chloro-6-fluorophenyl)carbonyl]amino}methyl)-3,3,3-trifluoro-2-hydroxypropyl]-1-(4-fluorophenyl)-1H-pyrazole-4-carboxamide]",Emax,[1],≥ 20%
same,IC50,[1],< 1 µM
same,Emax,[2],20 to 85%
"Nc1c(C(=O)NCC(O)(CNC(=O)c2c(C(F)(F)F)cccc2C(F)(F)F)C(F)(F)F)cnn1-c1ccc(F)cc1 (racemic) [Example 15 (racemic), 5-amino-N-{2-[({[2,6-bis(trifluoromethyl)phenyl]carbonyl}amino)methyl]-3,3,3-trifluoro-2-hydroxypropyl}-1-(4-fluorophenyl)-1H-pyrazole-4-carboxamide]",Emax,[1],≥ 20%
same,IC50,[1],< 1 µM
same,Emax,[2],20 to 85%
"CCN(CC(O)(CNC(=O)c1cnn(-c2ccc(F)cc2)c1N)C(F)(F)F)C(=O)c1c(Cl)cccc1OC(F)F (racemic) [Example 25 (racemic), 5-amino-N-(2-{[({2-chloro-6-[(difluoromethyl)oxy]phenyl}carbonyl)(ethyl)amino]methyl}-3,3,3-trifluoro-2-hydroxypropyl)-1-(4-fluorophenyl)-1H-pyrazole-4-carboxamide]",Emax,[1],> 85%
same,IC50,[1],< 1 µM
same,Emax,[2],> 85%
"CN(CC(O)(CNC(=O)c1cnn(-c2ccc(F)cc2)c1N)C(F)(F)F)C(=O)c1c(F)cccc1Cl (racemic) [Example 9 (racemic), 5-Amino-N-(2-{[[(2-chloro-6-fluorophenyl)carbonyl](methyl)amino]methyl}-3,3,3-trifluoro-2-hydroxypropyl)-1-(4-fluorophenyl)-1H-pyrazole-4-carboxamide]",Emax,[1],> 85%
same,IC50,[1],< 1 µM
same,Emax,[2],> 85%
"Nc1c(C(=O)NCC(O)(CNC(=O)c2c(F)cccc2OC(F)F)C(F)(F)F)cnn1-c1ccc(F)cc1 (single isomer, unassigned) [Example 48 Enantiomer 1, 5-Amino-N-(2-{[({2-[(difluoromethyl)oxy]-6-fluorophenyl}carbonyl)amino]methyl}-3,3,3-trifluoro-2-hydroxypropyl)-1-(4-fluorophenyl)-1H-pyrazole-4-carboxamide]",Emax,[1],≥ 20%
same,IC50,[1],< 1 µM
same,Emax,[2],20 to 85%
